Laboratory results published in the supplement of paper PMC13380429.

Columns and labels:
Conditions in all cases: 72 h
Caco-2 [1] = test: cell viability relative to DMSO; higher = less toxic
Calu-3 [2] = test: as above
HepG2 [3] = test: as above
U2OS [4] = test: as above
Vero E6 [5] = test: as above
Caco-2 [6] = test: relative viability EC50 (midpoint between 100% and the lowest measured viability); higher = less toxic
Calu-3 [7] = test: as above
HepG2 [8] = test: as above
U2OS [9] = test: as above
Vero E6 [10] = test: as above
Caco-2 [11] = test: drug sensitivity score (DSS) for viability; higher = more toxic; extreme values may be limits of the assay
Calu-3 [12] = test: as above
HepG2 [13] = test: as above
U2OS [14] = test: as above
Vero E6 [15] = test: as above

Compound	cell viability (Caco-2 [1]; 1 nM) [%]	cell viability (Caco-2 [1]; 10 nM) [%]	cell viability (Caco-2 [1]; 100 nM) [%]	cell viability (Caco-2 [1]; 1000 nM) [%]	cell viability (Caco-2 [1]; 10000 nM) [%]	cell viability (Calu-3 [2]; 1 nM) [%]	cell viability (Calu-3 [2]; 10 nM) [%]	cell viability (Calu-3 [2]; 100 nM) [%]	cell viability (Calu-3 [2]; 1000 nM) [%]	cell viability (Calu-3 [2]; 10000 nM) [%]	cell viability (HepG2 [3]; 1 nM) [%]	cell viability (HepG2 [3]; 10 nM) [%]	cell viability (HepG2 [3]; 100 nM) [%]	cell viability (HepG2 [3]; 1000 nM) [%]	cell viability (HepG2 [3]; 10000 nM) [%]	cell viability (U2OS [4]; 1 nM) [%]	cell viability (U2OS [4]; 10 nM) [%]	cell viability (U2OS [4]; 100 nM) [%]	cell viability (U2OS [4]; 1000 nM) [%]	cell viability (U2OS [4]; 10000 nM) [%]	cell viability (Vero E6 [5]; 1 nM) [%]	cell viability (Vero E6 [5]; 10 nM) [%]	cell viability (Vero E6 [5]; 100 nM) [%]	cell viability (Vero E6 [5]; 1000 nM) [%]	cell viability (Vero E6 [5]; 10000 nM) [%]	relative viability EC50 (Caco-2 [6]) [µM]	relative viability EC50 (Calu-3 [7]) [µM]	relative viability EC50 (HepG2 [8]) [µM]	relative viability EC50 (U2OS [9]) [µM]	relative viability EC50 (Vero E6 [10]) [µM]	drug sensitivity score (Caco-2 [11])	drug sensitivity score (Calu-3 [12])	drug sensitivity score (HepG2 [13])	drug sensitivity score (U2OS [14])	drug sensitivity score (Vero E6 [15])
CCCCCCCC/C=C\CCCCCCCC(=O)N[C@@H](CO)Cc1ccc(O)cc1 [OMDM-2]	87.1	94.4	97.1	91.8	102	106	102	99.5	96.7	97.3	100	93.3	114	106	99.6	96.8	101	96.7	100	99.7	92.4	92	97.4	93.7	109	> 10	> 10	> 10	> 10	> 10	0	0	0	0	0
CC1(CN)Cc2ccccc2C1 [ORG-9768]	93	87.1	101	93.9	110	109	105	95.4	102	96.9	98	109	96.3	112	102	99.5	98	101	102	102	91.2	96.8	94	98.5	109	> 10	> 10	> 10	> 10	> 10	0	0	0	0	0
CN1CC[C@@H]2CN3CCc4cccc(c43)[C@@H]2C1 [SDZ-SER-082]	86.8	98.7	93.4	103	100	95.7	102	114	94.9	100	106	103	104	95.8	110	98.1	97.8	98.8	100	95.2	95.1	92.7	95.6	92.5	103	> 10	> 10	> 10	> 10	> 10	0	0	0	0	0
CC1(C)CC(=O)c2c(C(F)(F)F)nn(-c3ccc(C(N)=O)c(N[C@H]4CC[C@H](O)CC4)c3)c2C1 [SNX-2112]	95.2	102	59.3	34.4	32.7	99.9	103	44.6	35.7	35.1	108	96.3	3.7	0.4	1.1	100	102	27.1	2.7	1.6	95.3	101	99.8	44.9	26.9	0.0844	0.0505	0.0313	0.0659	0.639	17.3	18.6	30.4	26.1	10.5
Cc1[nH]c(/C=C2\C(=O)Nc3cc(-c4ccccc4)ccc32)c(C)c1CCC(=O)O [SU16f]	98.7	100	97.5	91.9	83.3	99.8	108	107	103	104	92.3	95.1	87.6	97.9	76.8	104	97	102	95.5	89.1	92.9	93.3	93.8	92.8	87	> 10	> 10	> 10	> 10	> 10	0.7	0	1	0.1	0
C/C(=N\c1ccccc1N)c1c(C)cc(=O)n(O)c1O [SUN-B-8155]	102	105	99.4	103	96.2	110	115	91.8	104	110	101	104	102	99.7	77.3	97.3	104	98.9	99.7	96.3	101	104	101	98.6	104	> 10	> 10	> 10	> 10	> 10	0	0	0.8	0	0
C[C@H](C[C@H](N)C(=O)O)C(=O)O [SYM-2081]	103	96	105	97.5	98.4	102	88.4	96.6	95.3	102	104	88.4	91.9	96.6	93.8	100	97.5	100	97.7	106	101	102	95.1	104	93.4	> 10	> 10	> 10	> 10	> 10	0	0	0	0	0
Cc1cc(C(=O)Nc2cc(Oc3ccc4nc(NC(=O)C5CC5)cn4n3)ccc2C)n(C)n1 [TAK-593]	98.4	99	93.2	97.6	80.5	94.6	102	97.6	101	98.3	99.1	95.5	93.1	104	75.4	101	103	98.4	95.1	94.1	99.6	101	96.3	95.4	91.1	> 10	> 10	> 10	> 10	> 10	0.9	0	0.7	0	0
CN(C)CCNc1nc2cc(O)ccc2c2c1C(=O)c1ccccc1-2 [TAS-103]	102	104	102	56.8	22.3	109	93.4	89.1	50.4	15.4	100	95.9	66.3	15.5	0.3	99.4	95.3	95.3	49.5	0	101	106	84.8	40	0.1	0.915	0.67	0.19	0.975	0.634	9.6	11.1	19.7	11.5	13.4
O=C(Nc1ccc(F)cc1)N1CCc2ccccc2[C@@H]1c1ccc(C(F)(F)F)cc1 [TC-I-2000]	102	103	95.9	98.7	93.3	107	98.3	94.6	99	97.4	93.6	109	99.5	101	94.2	98.7	99.2	102	99.8	102	108	101	102	103	89.7	> 10	> 10	> 10	> 10	> 10	0	0	0	0	0
COc1cccc(-n2nc(C(=O)O)cc2-c2ccc(C3CCCCC3)c(Cl)c2)c1 [TC-LPA5-4]	87.4	93.6	96.4	97.7	101	97.4	94.5	101	95.8	108	111	92.6	101	104	102	100	96.4	97.8	94.9	94.9	102	104	103	99.6	96	> 10	> 10	> 10	> 10	> 10	0	0	0	0	0
O=C1c2ccccc2C(Cc2ccncc2)(Cc2ccncc2)c2ccccc21 [XE-991]	100	94.1	97.5	93.8	89.2	108	87.7	108	91.2	99.8	97.8	97.6	97.6	96.3	89.1	103	98.8	100	96.5	100	94.5	101	98.8	93.3	91.1	> 10	> 10	> 10	> 10	> 10	0	0	0	0	0
Nc1ncnc2c1ncn2[C@@H]1O[C@H](COP(=O)(O)O)[C@@H](O)[C@H]1O [adenosine-phosphate]	114	98	86.4	113	92.8	89.1	93.5	93.6	101	89.6	90.2	94.5	101	85.6	96	97.9	102	94.6	104	107	101	108	110	91	102	> 10	> 10	> 10	> 10	> 10	0	0	0	0	0
C=CCSCC1Nc2cc(Cl)c(S(N)(=O)=O)cc2S(=O)(=O)N1 (stereo not given) [althiazide]	90.1	96.8	93	90.9	89.8	111	94.8	112	112	101	109	116	94.2	102	107	96.1	95.5	100	96.9	100	97.8	97.2	98.8	104	112	> 10	> 10	> 10	> 10	> 10	0	0	0	0	0
C[C@H]1CN(C[C@H](Cc2ccccc2)C(=O)NCC(=O)O)CC[C@@]1(C)c1cccc(O)c1 [alvimopan]	102	91.8	93.6	107	106	107	91.9	104	111	104	96.8	103	110	99.3	104	100	97.3	101	104	102	90.4	96.2	94.8	95.8	104	> 10	> 10	> 10	> 10	> 10	0	0	0	0	0
